Test results from paper PMC6318274, “Lattice engineering enables definition of molecular features allowing for potent small-molecule inhibition of HIV-1 entry” (Nature Communications, 2019).
“And” between values parts separate entries of the source, which are not always exact repeats. Equal values may be shown once. Read-outs that look alike come from different tables or passages of the source.

Test system: HIV-1 Env-pseudoviruses (208-strain panel)
Experiment: microbe, parasite or virus in culture
Type: cell-based
Design: Total Neutralized / % Neutralized: concentration or dose not given beside the values
Experimental: Neutralization was measured using single-round-of-infection HIV-1 Env-pseudoviruses and TZM-bl target cells (ARP Cat No. #8129)[44],[45]. Compounds were prepared at 400 μM with 4% DMSO (dimethyl sulfoxide) in PBS (phosphate-buffered saline) and diluted 20 times as the starting concentration for serial dilution in the neutralization assays. […] After incubation at 37 °C for 2 days, infection of target cells was measured by luciferase activity. Neutralization curves were fit by nonlinear regression using a five-parameter hill slope equation[45].

For `COc1cnc(-c2csc(C(=O)NCCO)n2)c2[nH]cc(C(=O)C(=O)N3CCC(=C(C#N)c4ccccc4)CC3)c12` [BMS-818251], the “% Neutralized” value was 99% and 98% and 93% and 83% and 75%, the “Total Neutralized” value was 205 and 204 and 194 and 173 and 155 and the IC50 (Human immunodeficiency virus 1, BAL, TZM-bl, BaL.26, clade B, read-out: IC50) was 0.1 nM. It also gave an IC50 (Human immunodeficiency virus 1, HXB2, TZM-bl, HXB2.DG, clade B, read-out: IC50) of 0.1 nM, an IC50 (Human immunodeficiency virus 1, SC422, TZM-bl, SC422.8, clade B, read-out: IC50) of 0.2 nM and an IC50 (Human immunodeficiency virus 1, TZM-bl) of 0.3 nM. It also gave an IC50 (Human immunodeficiency virus 1, TZM-bl, 45_01dG5, clade B, read-out: IC50) of 0.2 nM, an IC50 (Human immunodeficiency virus 1, TZM-bl, 0077.v1.c16, clade C, read-out: IC50) of 0.2 nM and an IC50 (Human immunodeficiency virus 1, TZM-bl, 89.6.DG, clade B, read-out: IC50) of 0.1 nM. The IC50 (Human immunodeficiency virus 1, TZM-bl, 96ZM651.02, clade C, read-out: IC50) was 0.1 nM, the IC50 (Human immunodeficiency virus 1, TZM-bl, 208-strain panel, read-out: Geometric mean IC50) was 1.5 nM and the IC50 (Human immunodeficiency virus 1, TZM-bl, 208-strain panel, read-out: Median IC50) was 0.5 nM. It also gave an IC50 (Human immunodeficiency virus 1, TZM-bl, 235-47, clade AG, read-out: IC50) of 0.1 nM, an IC50 (Human immunodeficiency virus 1, TZM-bl, 242-14 (Clade AG), read-out: IC50) of 0.5 nM and an IC50 (Human immunodeficiency virus 1, TZM-bl, 246-F3.C10.2, clade AC, read-out: IC50) of 2 nM. It also gave an IC50 (Human immunodeficiency virus 1, TZM-bl, 247-23 (Clade D), read-out: IC50) of 0.5 nM, an IC50 (Human immunodeficiency virus 1, TZM-bl, 0260.v5.c36, clade A, read-out: IC50) of 1 nM and an IC50 (Human immunodeficiency virus 1, TZM-bl, 263-8, clade AG, read-out: IC50) of 0.1 nM. For the same compound, the IC50 (Human immunodeficiency virus 1, TZM-bl, 269-12, clade AG, read-out: IC50) was 662 nM, the IC50 (Human immunodeficiency virus 1, TZM-bl, 271-11, clade AG, read-out: IC50) was 1240 nM and the IC50 (Human immunodeficiency virus 1, TZM-bl, 286.36, clade C, read-out: IC50) was 0.1 nM. The IC50 (Human immunodeficiency virus 1, TZM-bl, 288.38, clade C, read-out: IC50) was 0.2 nM, the IC50 (Human immunodeficiency virus 1, TZM-bl, 0330.v4.c3 (Clade A), read-out: IC50) was 10 nM and the IC50 (Human immunodeficiency virus 1, TZM-bl, 398-F1.F6.20, clade A, read-out: IC50) was 11 nM. The IC50 (Human immunodeficiency virus 1, TZM-bl, 426c (Clade C), read-out: IC50) was 0.6 nM, the IC50 (Human immunodeficiency virus 1, TZM-bl, 0439.v5.c1, clade A, read-out: IC50) was 0.6 nM and the IC50 (Human immunodeficiency virus 1, TZM-bl, 0815.v3.c3, clade ACD, read-out: IC50) was 0.1 nM. The IC50 (Human immunodeficiency virus 1, TZM-bl, 00836-2.5, clade C, read-out: IC50) was 12200 nM, the IC50 (Human immunodeficiency virus 1, TZM-bl, 0921.v2.c14, clade C, read-out: IC50) was 0.1 nM and the IC50 (Human immunodeficiency virus 1, TZM-bl, 928-28, clade AG, read-out: IC50) was 46 nM. For the same compound, the IC50 (Human immunodeficiency virus 1, TZM-bl, 001428-2.42, clade C, read-out: IC50) was 14 nM, the IC50 (Human immunodeficiency virus 1, TZM-bl, 3168.v4.c10, clade C, read-out: IC50) was 0.1 nM and the IC50 (Human immunodeficiency virus 1, TZM-bl, 3301.v1.c24, clade AC, read-out: IC50) was 5 nM. For the same compound, the IC50 (Human immunodeficiency virus 1, TZM-bl, 3326.v4.c3, clade CD, read-out: IC50) was 0.1 nM, the IC50 (Human immunodeficiency virus 1, TZM-bl, 3337.v2.c6, clade CD, read-out: IC50) was 0.2 nM and the IC50 (Human immunodeficiency virus 1, TZM-bl, 3365.v2.c20, clade A, read-out: IC50) was 90 nM. For the same compound, the IC50 (Human immunodeficiency virus 1, TZM-bl, 3415.v1.c1, clade A, read-out: IC50) was 0.4 nM, the IC50 (Human immunodeficiency virus 1, TZM-bl, 3468.v1.c12, clade AD, read-out: IC50) was 0.5 nM and the IC50 (Human immunodeficiency virus 1, TZM-bl, 3589.v1.c4, clade AC, read-out: IC50) was 0.2 nM. For the same compound, the IC50 (Human immunodeficiency virus 1, TZM-bl, 3637.v5.c3, clade C, read-out: IC50) was 0.2 nM, the IC50 (Human immunodeficiency virus 1, TZM-bl, 3718.v3.c11, clade A, read-out: IC50) was 0.7 nM and the IC50 (Human immunodeficiency virus 1, TZM-bl, 3817.v2.c59, clade CD, read-out: IC50) was 8 nM. It also gave an IC50 (Human immunodeficiency virus 1, TZM-bl, 3873.v1.c24, clade C, read-out: IC50) of 0.1 nM, an IC50 (Human immunodeficiency virus 1, TZM-bl, 3988.25, clade B, read-out: IC50) of 0.1 nM and an IC50 (Human immunodeficiency virus 1, TZM-bl, 5768.04, clade B, read-out: IC50) of 0.3 nM. It also gave an IC50 (Human immunodeficiency virus 1, TZM-bl, 6095.v1.c10, clade ACD, read-out: IC50) of 0.1 nM, an IC50 (Human immunodeficiency virus 1, TZM-bl, 6101.10, clade B, read-out: IC50) of 0.1 nM and an IC50 (Human immunodeficiency virus 1, TZM-bl, 6322.v4.c1, clade C, read-out: IC50) of 42 nM. For the same compound, the IC50 (Human immunodeficiency virus 1, TZM-bl, 6405.v4.c34, clade D, read-out: IC50) was 257 nM, the IC50 (Human immunodeficiency virus 1, TZM-bl, 6471.v1.c16, clade C, read-out: IC50) was 0.1 nM and the IC50 (Human immunodeficiency virus 1, TZM-bl, 6540.v4.c1, clade AC, read-out: IC50) was 2 nM. The IC50 (Human immunodeficiency virus 1, TZM-bl, 6545.v4.c1, clade AC, read-out: IC50) was 0.5 nM, the IC50 (Human immunodeficiency virus 1, TZM-bl, 6631.v3.c10, clade C, read-out: IC50) was 0.1 nM and the IC50 (Human immunodeficiency virus 1, TZM-bl, 6644.v2.c33, clade C, read-out: IC50) was 2 nM. It also gave an IC50 (Human immunodeficiency virus 1, TZM-bl, 6785.v5.c14, clade C, read-out: IC50) of 6 nM, an IC50 (Human immunodeficiency virus 1, TZM-bl, 6838.v1.c35, clade C, read-out: IC50) of 0.4 nM and an IC50 (Human immunodeficiency virus 1, TZM-bl, 7165.18 (Clade B), read-out: IC50) of 11 nM. The IC50 (Human immunodeficiency virus 1, TZM-bl, 0013095-2.11, clade C, read-out: IC50) was 0.1 nM, the IC50 (Human immunodeficiency virus 1, TZM-bl, 16055-2.3, clade C, read-out: IC50) was 0.3 nM and the IC50 (Human immunodeficiency virus 1, TZM-bl, 16845-2.22, clade C, read-out: IC50) was 0.1 nM. It also gave an IC50 (Human immunodeficiency virus 1, TZM-bl, 16936-2.21, clade C, read-out: IC50) of 0.4 nM, an IC50 (Human immunodeficiency virus 1, TZM-bl, 25710-2.43, clade C, read-out: IC50) of 0.1 nM and an IC50 (Human immunodeficiency virus 1, TZM-bl, 25711-2.4, clade C, read-out: IC50) of 1 nM. The IC50 (Human immunodeficiency virus 1, TZM-bl, 25925-2.22, clade C, read-out: IC50) was 0.1 nM, the IC50 (Human immunodeficiency virus 1, TZM-bl, 26191-2.48, clade C, read-out: IC50) was 0.1 nM and the IC50 (Human immunodeficiency virus 1, TZM-bl, 57128.vrc15, clade D, read-out: IC50) was 0.6 nM. The IC50 (Human immunodeficiency virus 1, TZM-bl, 191821.E6.1, clade D, read-out: IC50) was 0.1 nM, the IC50 (Human immunodeficiency virus 1, TZM-bl, 231965.c01, clade D, read-out: IC50) was 0.1 nM and the IC50 (Human immunodeficiency virus 1, TZM-bl, 620345.c1, clade AE, read-out: IC50) was 49 nM. For the same compound, the IC50 (Human immunodeficiency virus 1, TZM-bl, A07412M1.vrc12, clade D, read-out: IC50) was 1 nM, the IC50 (Human immunodeficiency virus 1, TZM-bl, AC10.29, clade B, read-out: IC50) was 0.2 nM and the IC50 (Human immunodeficiency virus 1, TZM-bl, ADA.DG, clade B, read-out: IC50) was 0.1 nM. It also gave an IC50 (Human immunodeficiency virus 1, TZM-bl, BB201.B42, clade A, read-out: IC50) of 4 nM, an IC50 (Human immunodeficiency virus 1, TZM-bl, BB539.2B13, clade A, read-out: IC50) of 0.2 nM and an IC50 (Human immunodeficiency virus 1, TZM-bl, BG1168.01, clade B, read-out: IC50) of 1 nM. It also gave an IC50 (Human immunodeficiency virus 1, TZM-bl, BI369.9A, clade A, read-out: IC50) of 0.3 nM, an IC50 (Human immunodeficiency virus 1, TZM-bl, BJOX002000.03.2, clade BC, read-out: IC50) of 0.2 nM and an IC50 (Human immunodeficiency virus 1, TZM-bl, BJOX009000.02.4, clade AE, read-out: IC50) of 105 nM. For the same compound, the IC50 (Human immunodeficiency virus 1, TZM-bl, BJOX010000.06.2, clade AE, read-out: IC50) was 1660 nM, the IC50 (Human immunodeficiency virus 1, TZM-bl, BJOX025000.01.1, clade AE, read-out: IC50) was 178 nM and the IC50 (Human immunodeficiency virus 1, TZM-bl, BJOX028000.10.3 (Clade AE), read-out: IC50) was 236 nM. For the same compound, the IC50 (Human immunodeficiency virus 1, TZM-bl, BL01.DG (Clade B), read-out: IC50) was 2960 nM, the IC50 (Human immunodeficiency virus 1, TZM-bl, BR07.DG, clade B, read-out: IC50) was 641 nM and the IC50 (Human immunodeficiency virus 1, TZM-bl, BR025.9, clade C, read-out: IC50) was 880 nM. For the same compound, the IC50 (Human immunodeficiency virus 1, TZM-bl, BS208.B1, clade A, read-out: IC50) was 0.3 nM, the IC50 (Human immunodeficiency virus 1, TZM-bl, BX08.16, clade B, read-out: IC50) was 0.1 nM and the IC50 (Human immunodeficiency virus 1, TZM-bl, C1080.c3, clade AE, read-out: IC50) was 5380 nM. For the same compound, the IC50 (Human immunodeficiency virus 1, TZM-bl, C2101.c1, clade AE, read-out: IC50) was 1470 nM, the IC50 (Human immunodeficiency virus 1, TZM-bl, C3347.c11, clade AE, read-out: IC50) was 452 nM and the IC50 (Human immunodeficiency virus 1, TZM-bl, C4118.09 (Clade AE), read-out: IC50) was 59 nM. For the same compound, the IC50 (Human immunodeficiency virus 1, TZM-bl, CAAN.A2, clade B, read-out: IC50) was 0.1 nM, the IC50 (Human immunodeficiency virus 1, TZM-bl, CAP45.G3, clade C, read-out: IC50) was 4 nM and the IC50 (Human immunodeficiency virus 1, TZM-bl, CAP210.E8 (Clade C), read-out: IC50) was 14 nM. The IC50 (Human immunodeficiency virus 1, TZM-bl, CAP244.D3, clade C, read-out: IC50) was 0.1 nM, the IC50 (Human immunodeficiency virus 1, TZM-bl, CE703010217.B6, clade C, read-out: IC50) was 0.1 nM and the IC50 (Human immunodeficiency virus 1, TZM-bl, CH038.12, clade BC, read-out: IC50) was 92 nM. The IC50 (Human immunodeficiency virus 1, TZM-bl, CH070.1, clade BC, read-out: IC50) was 0.8 nM, the IC50 (Human immunodeficiency virus 1, TZM-bl, CH117.4, clade BC, read-out: IC50) was 0.4 nM and the IC50 (Human immunodeficiency virus 1, TZM-bl, CH119.10 (Clade BC), read-out: IC50) was 0.1 nM. The IC50 (Human immunodeficiency virus 1, TZM-bl, CH181.12, clade BC, read-out: IC50) was 0.1 nM, the IC50 (Human immunodeficiency virus 1, TZM-bl, CM244.ec1, clade AE, read-out: IC50) was 260 nM and the IC50 (Human immunodeficiency virus 1, TZM-bl, CNE3, clade AE, read-out: IC50) was 61 nM. It also gave an IC50 (Human immunodeficiency virus 1, TZM-bl, CNE4, clade B, read-out: IC50) of 4730 nM.
